In patent US12297295B2, “Peptide for treating cancer” (Saint Leo University, priority 2019, dated 2025):
Where no end group is shown, it is not given here.

Legend:
[1] = system: PC3 prostate cancer cells; details: for effect on viability of PC3 prostate cancer cells: transfected 1.25-10 μM for 3.5 hrs, two doubling times, CCK-8
Experimental: The effect of peptide 7α of viability of prostate cancer cells was studied. PC3 prostate cancer cells (ATCC #CRL-1435) were transfected with 1.25-10 μM peptide 7α for 3.5 hrs, incubated in a complete media for a duration of two doubling times, and assessed for viability by using a CCK-8 colorimetric assay (Dojindo Molecular Technologies, Inc.).
The effect of peptide 7MM of viability of prostate cancer cells was studied. PC3 prostate cancer cells (ATCC #CRL-1435) were transfected with 1.25-10 μM peptide 7MM for 3.5 hrs, incubated in a complete media for a duration of two doubling times, and assessed for viability by using a CCK-8 colorimetric assay (Dojindo Molecular Technologies, Inc.).
(§1) IC50 values were calculated from obtained equations that describe cell viability as a function of peptide concentration.

[2] = system: SVG p12 immortalized astroglia cells
Experimental: as §1

[3] = system: M059J glioma cancer cells; details: for IC50: 48 h; for effect on viability of M059J glioma cells: transfected 1.25-10 μM for 3.5 hrs, two doubling times, CCK-8
Experimental: (§2) Pierce Protein Transfection reagent (Thermo Scientific, 89850) was used to deliver peptide to the cultured cells.
M059J glioma cancer cells (ATCC #CRL-2366) were transfected with 1.25-10 μM peptide 7α for 3.5 hrs, incubated in a complete media for a duration of two doubling times, and assessed for viability by using a CCK-8 colorimetric assay (Dojindo Molecular Technologies, Inc.).
M059J glioma cancer cells (ATCC #CRL-2366) were transfected with 1.25-10 μM peptide 7MM for 3.5 hrs, incubated in a complete media for a duration of two doubling times, and assessed for viability by using a CCK-8 colorimetric assay (Dojindo Molecular Technologies, Inc.).
as §1

[4] = system: HT1080 fibrosarcoma cancer cells; details: for effect on viability of HT1080 fibrosarcoma cancer cells: transfected 1.25-10 μM for 3.5 hrs, two doubling times, CCK-8
Experimental: as §1

[5] = system: HMEC primary mammary epithelial normal cells
Experimental: HMEC mammary epithelial cells (ATCC #PCS-600-010) were transfected with 1.25-20 μM peptide 7α for 3.5 hrs, incubated in a complete media for a duration of two doubling times, and assessed for viability by using a CCK-8 colorimetric assay (Dojindo Molecular Technologies, Inc.).
HMEC primary normal epithelial breast cells (ATCC #PCS-600-010) were transfected with 1.25-10 μM peptide 7MM for 3.5 hrs, incubated in a complete media for a duration of two doubling times, and assessed for viability by using a CCK-8 colorimetric assay (Dojindo Molecular Technologies, Inc.).
as §1

HepG2 liver cancer cells = details: for IC50: 96 h
Experimental: as §2, §1

[6] = system: THLE-3 immortalized normal liver cells; details: for effect on viability of THLE-3 normal liver cells: transfected 1.25-10 μM for 3.5 hrs, two doubling times, CCK-8
Experimental: as §1

A549 lung cancer cells = details: for effect on viability of A549 lung cancer cells: transfected 1.25-10 μM for 3.5 hrs, two doubling times, CCK-8
Experimental: as §1

CMG helicase [7] = molecular target: T1, CMG helicase (Xenopus laevis, UniProt Q91876); assay: S phase arrested Xenopus egg extracts, chromatin RPA Western blot as readout for DNA helicase activity; type: biochemical; details: 250 μM peptide, 90 min incubation
T1 construct: from tissue; host or cells: S phase arrested Xenopus egg extracts (endogenous proteins on chromatin)
Experimental: The peptide of SEQ ID NO: 1 was synthesized using solid-phase synthesis. The product was purified using HPLC to a purity of about 99%. 250 μM of peptide Ex7 ([…]) (SEQ ID NO: 8), peptide 7N (circularized—KGEVLQMEDDLV) (SEQ ID NO: 9), peptide 7M (ISFQLMLCVLDYF) (SEQ ID NO: 1), or peptide 7C (IKLSPPMLLKEPYK) (SEQ ID NO: 10) were incubated in S phase arrested Xenopus egg extracts. Following a 90 min incubation, chromatin was isolated and probed by Western blotting for RPA protein as a readout for DNA helicase activity. Additionally, peptide 7MN (ISFQLML) (SEQ ID NO: 5), peptide 7MM (QLMLCVL) (SEQ ID NO: 2), and peptide 7MC (LCVLDYF) (SEQ ID NO: 6) were tested.
250 μM of each of peptides 7α (DLVISFQLMLCVLDYFIK) (SEQ ID NO: 14), 7α-ln (LVISFQLMLCVLDYFIK) (SEQ ID NO: 22), 7α-2n (VISFQLMLCVLDYFIK) (SEQ ID NO: 23), 7α-3n (ISFQLMLCVLDYFIK) (SEQ ID NO: 24), 7α-4n (SFQLMLCVLDYFIK) (SEQ ID NO: 25), 7α-5n (FQLMLCVLDYFIK) (SEQ ID NO: 26), 7α-6n (QLMLCVLDYFIK) (SEQ ID NO: 27), 7α-7n (LMLCVLDYFIK) (SEQ ID NO: 28), 7α-17c (DLVISFQLMLCVLDYF) (SEQ ID NO: 29), 7α-16c (DLVISFQLMLCVLDY) (SEQ ID NO: 30), 7α-15c (DVISFQLMLCVLD) (SEQ ID NO: 31), 7α-14c (DVISFQLMLCVL) (SEQ ID NO: 32), 7α-11c (DVISFQLML) (SEQ ID NO: 33) was incubated in S phase arrested Xenopus egg extracts. Following a 90 min incubation, chromatin was isolated and probed by Western blotting for RPA protein as a readout for DNA helicase activity.

[8] = system: DU145 prostate cancer cells; details: for effect on viability of DU145 prostate cancer cells: transfected 1.25-10 μM for 3.5 hrs, two doubling times, CCK-8
Experimental: DU145 prostate cancer cells (ATCC #HTB-81) were transfected with 1.25-10 μM peptide 7α for 3.5 hrs, incubated in a complete media for a duration of two doubling times, and assessed for viability by using a CCK-8 colorimetric assay (Dojindo Molecular Technologies, Inc.).
DU145 prostate cancer cells (ATCC #HTB-81) were transfected with 1.25-10 μM peptide 7MM for 3.5 hrs, incubated in a complete media for a duration of two doubling times, and assessed for viability by using a CCK-8 colorimetric assay (Dojindo Molecular Technologies, Inc.).
as §1

[9] = system: BT-549 breast cancer cells; details: for IC50: 96 h
Experimental: The effect of Peptides 7M and 7MM on BT-549 breast cancer cells (ATCC #HTB-122) was studied. Pierce Protein Transfection reagent (Thermo Scientific, 89850) was used to deliver peptide to the cultured cells. BT-549 breast cancer cells were transfected with 0.625-20 μM Peptide 7M or 1.25-10 μM Peptide 7MM for 3.5 hrs, incubated in a complete media for a duration of two doubling times (96 hours), and assessed for viability by using a CCK-8 colorimetric assay.
as §1

H596 lung cancer cells = details: for effect on viability of H596 lung cancer cells: transfected 1.25-10 μM for 3.5 hrs, two doubling times, CCK-8
Experimental: as §1

[10] = system: PANC-1 pancreatic cancer cells; details: for IC50: 48 h
Experimental: The effect of Peptides 7M and 7MM on PANC-1 pancreatic cancer cells (ATCC #CRL-1469) was studied. Pierce Protein Transfection reagent (Thermo Scientific, 89850) was used to deliver peptide to the cultured cells. PANC-1 pancreatic cancer cells were transfected with 0.625-10 μM Peptide 7M or Peptide 7MM for 3.5 hrs, incubated in a complete media for a duration of two doubling times (48 hours), and assessed for viability by using a CCK-8 colorimetric assay.
The effect of peptide 7α of viability of pancreatic cancer cells was studied. PANC-1 pancreatic cancer cells (ATCC #CRL-1469) were transfected with 1.25-10 μM peptide 7α for 3.5 hrs, incubated in a complete media for a duration of two doubling times, and assessed for viability by using a CCK-8 colorimetric assay (Dojindo Molecular Technologies, Inc.).
as §1

[11] = system: HCT-116 colorectal cancer cells; details: for effect on viability of HCT-116 colorectal cancer cells: transfected 1.25-10 μM for 3.5 hrs, two doubling times, CCK-8
Experimental: The effect of peptide 7MM of viability of colorectal cancer cells was studied. HCT-116 colorectal cancer cells (ATCC #CCL-247) were transfected with 1.25-10 μM peptide 7MM for 3.5 hrs, incubated in a complete media for a duration of two doubling times, and assessed for viability by using a CCK-8 colorimetric assay (Dojindo Molecular Technologies, Inc.).
as §1

[12] = system: Hs 766T pancreatic cancer cells; details: for effect on viability of Hs 766T pancreatic cancer cells: transfected 1.25-10 μM for 3.5 hrs, two doubling times, CCK-8
Experimental: as §1

[13] = system: HLF normal primary lung fibroblasts; details: for effect on viability of HLF normal primary lung fibroblasts: transfected 1.25-10 μM for 3.5 hrs, two doubling times, CCK-8
Experimental: The effect of peptide 7α of viability of HLF normal primary lung fibroblasts was studied. HLF normal primary lung fibroblasts (ATCC #PCS-201-013) were transfected with 1.25-10 μM peptide 7α for 3.5 hrs, incubated in a complete media for a duration of two doubling times, and assessed for viability by using a CCK-8 colorimetric assay (Dojindo Molecular Technologies, Inc.).
The effect of peptide 7MM of viability of normal lung cells was studied. HLF normal primary lung fibroblasts (ATCC #PC S-201-013) were transfected with 1.25-10 μM peptide 7MM for 3.5 hrs, incubated in a complete media for a duration of two doubling times, and assessed for viability by using a CCK-8 colorimetric assay (Dojindo Molecular Technologies, Inc.).
as §1

[14] = system: hTERT-HPNE immortalized normal pancreatic cells; details: for effect on viability of hTERT-HPNE normal pancreatic cells: transfected 1.25-10 μM for 3.5 hrs, two doubling times, CCK-8
Experimental: as §1

[15] = system: U-2 OS osteosarcoma cancer cells; details: for effect on viability of U-2 OS osteosarcoma cancer cells: transfected 1.25-10 μM for 3.5 hrs, two doubling times, CCK-8
Experimental: as §1

CMG helicase [16] = molecular target: T1, CMG helicase; assay: S phase arrested Xenopus egg extracts, chromatin RPA Western blot as readout for DNA helicase activity; type: biochemical; details: extended from the above and other findings; no test described
cancer cells = assay: Viability of cancer cells, summary statement; type: cell-based; details: extended from the above and other findings; no test described
[17] = transfected 1.25-20 μM for 3.5 hrs, two doubling times, CCK-8
[18] = transfected 1.25-10 μM for 3.5 hrs, two doubling times, CCK-8

IC50 [1] [µM] | IC50 [3] [µM] | IC50 [4] [µM] | IC50 (HepG2 liver cancer cells) [µM] | IC50 (A549 lung cancer cells) [µM] | IC50 [8] [µM] | IC50 [9] [µM] | IC50 (H596 lung cancer cells) [µM] | IC50 [10] [µM] | IC50 [11] [µM] | Substance | effect on viability of PC3 prostate cancer cells [1] | IC50 [2] [µM] | effect on viability of M059J glioma cells [3] | effect on viability of HT1080 fibrosarcoma cancer cells [4] | IC50 [5] [µM] | IC50 [6] [µM] | effect on viability of THLE-3 normal liver cells [6] | effect on viability of A549 lung cancer cells (A549 lung cancer cells) | effect on viability of DU145 prostate cancer cells [8] | effect on viability of H596 lung cancer cells (H596 lung cancer cells) | further results
9.6 | 7.1 | 4.4 | 3.7 | 16.5 | 10.3 | 4.6 | 7.5 | 6.4 | 9.5 | DLVISFQLMLCVLDYFIK [7α, DLVISFQLMLCVLDYFIK] | decreases viability | 113 | decreases viability | decreases viability | 115 | 119 | does not affect viability | decreases viability | decreases viability | decreases viability | effect on viability of SVG p12 normal brain cells [2, 17]: does not affect viability; effect on viability of HMEC normal mammary epithelial cells [5, 17]: does not affect viability; effect on viability of HepG2 liver cancer cells (HepG2 liver cancer cells; transfected 1.25-5 μM for 3.5 hrs, two doubling times, CCK-8): decreases viability; inhibition of CMG helicase in vitro (chromatin RPA Western blot) (CMG helicase [7]): inhibit CMG helicase in vitro; effect on viability of BT-549 breast cancer cells [9, 18]: decreases viability; effect on viability of PANC-1 pancreatic cancer cells [10, 18]: decreases viability; effect on viability of HCT-116 colorectal cancer cells [11]: decreases viability; IC50 [12]: 7.4 µM; effect on viability of Hs 766T pancreatic cancer cells [12]: decreases viability; IC50 [13]: 225 µM; effect on viability of HLF normal primary lung fibroblasts [13]: does not affect viability; IC50 [14]: 366 µM; effect on viability of hTERT-HPNE normal pancreatic cells [14]: does not affect viability; IC50 [15]: 14.5 µM; effect on viability of U-2 OS osteosarcoma cancer cells [15]: decreases viability
– | 6.8 | – | 10 | – | – | 6.6 | – | 7.4 | – | ISFQLMLCVLDYF [7M, ISFQLMLCVLDYF] | – | 109 | – | – | – | – | – | – | – | – | –
– | – | – | – | – | – | – | – | – | – | QLMGCVL [7MM-G4] | – | – | – | – | – | – | – | – | – | – | inhibition of CMG helicase (CMG helicase [16]): inhibit CMG helicase; effect on viability of cancer cells (cancer cells): decrease viability of cancer cells
13 | 7.7 | 9.7 | 14.2 | 15.6 | 10.6 | 6.8 | 7.6 | 10.1 | 4.9 | QLMLCVL [7MM, QLMLCVL] | decreases viability | 60.4 | decreases viability | decreases viability | 77.5 | 100 | does not affect viability | decreases viability | decreases viability | decreases viability | effect on viability of SVG p12 normal glial cells [2, 18]: does not affect viability; effect on viability of HMEC normal breast cells [5, 18]: does not affect viability; effect on viability of HCT-116 colorectal cancer cells [11]: decreases viability; IC50 [12]: 5.7 µM; effect on viability of Hs 766T pancreatic cancer cells [12]: decreases viability; IC50 [13]: 110 µM; effect on viability of HLF normal primary lung fibroblasts [13]: does not affect viability; IC50 [14]: 79.9 µM; effect on viability of hTERT-HPNE normal pancreatic cells [14]: does not affect viability; IC50 [15]: 9.6 µM; effect on viability of U-2 OS osteosarcoma cancer cells [15]: decreases viability
– | – | – | – | – | – | – | – | – | – | QLMLCVLD [7MM-D] | – | – | – | – | – | – | – | – | – | – | inhibition of CMG helicase (CMG helicase [16]): inhibit CMG helicase; effect on viability of cancer cells (cancer cells): decrease viability of cancer cells
